Values joined by “and” are separate entries in the source; they are usually repeats but may differ in a detail not shown here. Equal values may be shown once. Read-outs that look alike come from different tables or passages of the source.
Tests used:
[1] = tested on: patients with newly diagnosed glioblastoma; test: Survival from the date of study enrollment; assay type: in vivo; conditions: all patients on study
From the text: All subjects were followed until death, and survival from the date of study enrollment was reported to evaluate for any unexpected adverse results.

[2] = Plasma pharmacokinetics of veliparib, LC-MS/MS, noncompartmental analysis; assay type: in vivo, patients; conditions: for Cmax: human, plasma, oral, 10 mg, read-out: Cmax, maximum drug concentration in plasma
Experimental: Patients received a single dose of veliparib one day prior to starting combination therapy with TMZ or RT/TMZ for PK testing after the first single dose as described below. Patients without disease progression, as evaluated by MRI 10-weeks after the initiation of veliparib therapy, received up to four maintenance cycles of the same dose of veliparib in the initial safety cohort or six cycles in phase I veliparib/RT/TMZ cohort. Veliparib was to be given BID for 7 days and TMZ 150–200 mg/m^2 QD for 5 days, repeated every 28 days, with an imaging evaluation after completing every second maintenance cycle.
Plasma samples were collected to define plasma concentration-time profiles. Samples were collected shortly before dosing and at 0.25, 0.5, 1, 2, 3, 4, 6, 8, and 24 hours after the first dose of six weeks of TMZ and again after achieving steady-state conditions on any day of week 3 of the six weeks (omitting the 24 hour specimen). Samples were analyzed by liquid chromatography-mass spectrometry (LC-MS)/mass spectrometry (MS), Agilent 410B Triple Quadrupole LC/MS system (Agilent Technologies, Inc., Santa Clara, CA).
The plasma concentration-time data for veliparib was analyzed by noncompartmental methods using model 200 for extravascular input in WinNonlin Professional version 5.0.1. Samples with concentrations below the LLQ of the assay were excluded. The maximum concentration of the drug achieved in plasma (Cmax) and the time that it occurred (tmax) were based upon the observed values following a given dose. Area under the plasma concentration-time curves for 8 h (AUC8) and 24 h (AUC24) after dosing were estimated using the log- linear trapezoidal algorithm. Routines provided in the Data Analysis ToolPak of Microsoft Excel 2003 (11.8231.8221) SP3, Professional Edition (Redmond, WA), were used for the descriptive statistics and statistical tests. Arithmetic averages and standard deviations were calculated for the time of the maximum drug concentration in plasma (tmax). Geometric means were calculated for all other pharmacokinetic variables. The jackknife technique was used to estimate the standard deviation of geometric means.

[3] = set-up: method as in PMID 19364967; conditions: phase 0 clinical trial, oral; cited from earlier work
brain metastasis = tested on: brain metastasis; set-up: method as in PMID 25682091; conditions: Veliparib 40 mg BID or 200 mg BID added to whole brain radiotherapy; cited from earlier work
[4] = set-up: method as in PMID 17473206; conditions: rodent model; cited from earlier work
[5] = set-up: method as in PMID 26202595; conditions: cited from earlier work
[6] = set-up: method as in PMID 28243955, PMID 28497258, PMID 30456480, PMID 27503200, PMID 21795476; conditions: cited from earlier work
[7] = tested on: patients with MGMT methylation; set-up: method as in doi:10.1200/JCO.2022.40.16_suppl.2001; conditions: cited from earlier work
[8] = tested on: patients with newly diagnosed glioblastoma; test: Phase I dose-limiting toxicities / adverse events (CTCAE v.3.0); assay type: in vivo
Experimental: This was an open-label, multi-center, phase 1 study. The maximum tolerated dose (MTD) was a dose producing a dose-limiting-toxicity (DLT) rate at 33% or less. A modified 3 + 3 design with 6 patients per dose cohort was used due to 10 weeks long safety evaluation period that potentially 40–50% patient might drop-out study for early disease progression.
The initial safety group of up to 6 patients included patients who had recently completed standard concurrent RT/TMZ) were then treated with one cycle of low-dose veliparib 10 mg BID along with 6 weeks of once-a day (QD) temozolomide 75 mg/m2/d (no RT). Once this one cycle was complete, patients were permitted to transition to monthly cycles of standard adjuvant temozolomide 150–200 mg/m2/d for five consecutive days each month.
If safety was confirmed, then the phase I component including radiotherapy would proceed enrolling cohorts of 6 patients to pre-specified escalating dose levels of daily veliparib, ranging from 10 mg BID to 100 mg twice-daily BID daily along with TMZ (75 mg/m^2/d) for 6 weeks in conjunction with standard radiation 60 Gy in 30 fractions.The protocol specified that if excessive toxicity occurred, de-escalation could be introduced by joint decision of study PI, sponsor, and ABTC leadership to a choice of veliparib 10 mg daily, 10 mg every other day or 10 mg BID 1 week on/1 week off for the 6-week period.
DLTs were events considered possible or probably related to veliparib alone, veliparibib/TMZ or Veliparib/RT per CTCAE v.3.0 including: ≥ grade 3 nonhematological toxicities not resolving with anticonvulsants or steroid treatment excluding grade 3 nausea and dermatitis. Hematologic toxicity was considered dose limiting if there was 1) ANC ≤ 500/mm^3; 2) Platelets ≤ 25,000/mm^3; 3) Grade 3 toxicity that prevents administration of > 75% of the planned temozolomide doses for the first cycle; 4) interruption of treatment for > 14 days. All subjects were monitored for safety throughout the trial.

[9] = set-up: method as in PMID 17473206; conditions: preclinical, oral; cited from earlier work
[10] = Single dose 10 mg Veliparib, n=16
[11] = Steady-state 10 mg BID Veliparib, week 3, n=18

For `C[C@]1(c2nc3c(C(N)=O)cccc3[nH]2)CCCN1` [Veliparib], the “Survival at 2 years” value [1] was 25%, the Median survival ([1]; 95%CI: 8–16 months) was 13 months and the Accumulation for BID dosing ([2]; BID dosing) was 56%. For the same compound, the “CL/F, apparent oral clearance” value ([2]; Single (initial) dose 10 mg Veliparib, n=16) was 27.0 ± 9.0 L/h and 27.0 ± 9.2 L/h, the “t1/2,z apparent terminal phase half-life” value [2, 10] was 5.8 ± 0.9 h and the “Cmin, minimum drug concentration in plasma” value ([2]; Single dose 10 mg Veliparib, n=16, geometric mean ± SD) was 0.0025 ± 0.0013 µg/mL. For the same compound, the “CL/F, apparent oral clearance” value ([2]; Steady-state 10 mg BID Veliparib, n=18) was 23.5 ± 10.4 L/h, the “Cmin, minimum drug concentration in plasma” value [2, 11] was 0.0184 ± 0.0104 µg/mL and the Accumulation ([2]; Steady-state 10 mg BID dosing) was 56%. The Cmax [2, 10] was 0.0503 ± 0.019 µg/mL, the Cmax [2, 11] was 0.0661 ± 0.0287 µg/mL and the “Peak and trough concentrations throughout six weeks of daily dosing” value ([2]; veliparib 20 mg BID concurrently with daily temozolomide (so in the source)) was “remains stable”. For the same compound, the Bioavailability [3] was “good bioavailability”, the “Adverse events compared with placebo” value (brain metastasis) was “no increase in adverse events” and the “Crossing of the blood brain barrier” value [4] was “cross the blood brain barrier”. For the same compound, the “Effect of veliparib coadministration on TMZ plasma exposures” value [5] was “does not affect”, the “Effect of TMZ co-administration on the clearance of veliparib” value [6] was “no effect” and the “Hematologic toxicity (neutropenia, thrombocytopenia, and anemia)” value ([7]; veliparib 40 mg BID each day of standard adjuvant TMZ (days 1–5) after concurrent RT/TMZ) was “increased but acceptable hematologic toxicity”. The Survival benefit ([7]; veliparib 40 mg BID each day of standard adjuvant TMZ (days 1–5)) was “without survival benefit”, the “Patients with platelets <25,000/mm^3” value ([8]; 12 patients, veliparib 10 mg BID + TMZ + RT) was 3 patients and the Anemia ([8]; human, in vivo, 6 weeks) was 1 (4.2) n (%). The “Any adverse event (dose limiting, possibly related)” value ([8]; human, in vivo, 6 weeks) was 11 (45.8) n (%), the Febrile neutropenia ([8]; human, in vivo, 6 weeks) was 1 (4.2) n (%) and the Neutropenia ([8]; human, in vivo, 6 weeks) was 2 (8.3) n (%). The Pancytopenia ([8]; human, in vivo, 6 weeks) was 1 (4.2) n (%), the “Subjects with ≥ 1 AE (Blood and Lymphatic Systemic Disorders)” value ([8]; human, in vivo, 6 weeks) was 9 (37.5) n (%) and the Thrombocytopenia ([8]; human, in vivo, 6 weeks) was 7 (29.2) n (%). For the same compound, the “Number of dose limiting toxicities (DLT)” value ([8]; in vivo) was “one”, the “Tolerable dose (maximum tolerated dose)” value ([8]; with TMZ and six weeks of standard radiation, even with 50% dose reductions) was “a tolerable dose of veliparib could not be found” and the Bioavailability [9] was “good bioavailability”.

Reference: publication PMC10635324, “A Multi-Site Phase I Trial of Veliparib with Standard Radiation and Temozolomide in Patients with Newly Diagnosed Glioblastoma Multiforme (GBM)” (Research Square, 2023)
